From ChEMBL document CHEMBL5678800 (Mol Cancer Ther, 2009)
Activity calls are given as the source filed them. The calls are words filed in the database; no cut-off is given here.

Key:
Rh41 [1] = assay: Induction of cell cycle arrest in human Rh41 cells assessed as accumulation of cells at G2/M phase by measuring >4N DNA content at 10x IC50 incubated for 24 hrs by propidium iodide staining based flow cytometry analysis; format: functional
[2] = Toxicity in nude mouse xenografted with human GEO cells assessed as body weight loss at 6.25 mg/kg, po administered for 3 days in presence of cetuximab at 0.25 mg/kg relative to control; format: organism-based; settings: in vivo, 72 h, time 3 day
[3] = Toxicity in nude mouse xenografted with human GEO cells assessed as mortality at 6.25 mg/kg, po administered for 3 days in presence of cetuximab at 0.25 mg/kg relative to control; format: organism-based; settings: in vivo, time 3 day
IGF-1R-Sal = assay: In vivo inhibition of IGF-1R phosphorylation in mouse IGF-1R-Sal cells xenografted in nude mouse at 12.5 mg/kg, po administered for 30 mins by Western blotting analysis; format: functional, organism-based
GEO [4] = assay: Antitumor activity against human GEO cells xenografted in nude mouse assessed as tumor growth inhibition at 12.5 mg/kg, po administered for 3 days in presence of cetuximab at 0.125 mg/kg relative to control; format: functional; settings: 72 h, time 3 day, read-out: TGI
Rh41 [5] = assay: Induction of cell cycle arrest in human Rh41 cells assessed as accumulation of cells at G2/M phase at 10x IC50 incubated for 24 hrs by propidium iodide staining based flow cytometry analysis relative to control; format: functional
Mus musculus [6] = assay: Anti-diabetic activity against nude mouse xenografted with mouse IGF-1R-Sal cells assessed as increased serum glucose level at 3.125 mg/kg, po administered for 2 hrs by oral glucose tolerance test (Rvb= 97.40 +/- 5.0 mg/dl); format: functional
GEO [7] = assay: Antitumor activity against human GEO cells xenografted in nude mouse assessed as tumor growth delay time at 6.25 mg/kg, po administered for 3 days in presence of cetuximab at 0.25 mg/kg relative to control; format: functional; settings: time 3 day
[8] = Toxicity in nude mouse xenografted with human GEO cells assessed as body weight loss at 25 mg/kg, po administered for 3 days in presence of cetuximab at 0.25 mg/kg relative to control; format: organism-based; settings: in vivo, 72 h, time 3 day
GEO [9] = assay: Antitumor activity against human GEO cells xenografted in nude mouse assessed as tumor growth inhibition at 6.25 mg/kg, po administered for 3 days in presence of cetuximab at 0.125 mg/kg relative to control; format: functional; settings: 72 h, time 3 day, read-out: TGI
GEO [10] = assay: Antitumor activity against human GEO cells xenografted in nude mouse assessed as tumor growth inhibition at 12.5 mg/kg, po administered for 17 days relative to control; format: functional; settings: 408 h, time 17 day, read-out: TGI
GTL 16 cell line = assay: Antiproliferative activity against human GTL 16 cell line assessed as inhibition of cell viability incubated for 72 hrs by 3H-thymidine incorporation assay; format: functional, cell-based
GEO [11] = assay: Antitumor activity against human GEO cells xenografted in nude mouse assessed as tumor growth inhibition at 12.5 mg/kg, po administered for 3 days in presence of cetuximab at 0.25 mg/kg relative to control; format: functional; settings: 72 h, time 3 day, read-out: TGI
GEO [12] = assay: Antitumor activity against human GEO cells xenografted in nude mouse assessed as tumor growth delay time at 25 mg/kg, po administered for 3 days in presence of cetuximab at 0.125 mg/kg relative to control; format: functional; settings: time 3 day
COLO 205 = assay: Antitumor activity against human COLO 205 cells xenografted in nude mouse assessed as tumor growth inhibition at 50 mg/kg, po administered for 23 days relative to control; format: functional; settings: COLO 205, 552 h, time 23 day, read-out: TGI
[13] = Toxicity in nude mouse xenografted with human GEO cells assessed as mortality at 25 mg/kg, po administered for 17 days relative to control; format: organism-based; settings: in vivo, time 17 day
[14] = target: High affinity nerve growth factor receptor (Rattus norvegicus, UniProt P35739); assay: Inhibition of TrkA autophosphorylation in rat CD8-TrkA cells by Western blotting analysis; format: cell-based
[15] = Toxicity in nude mouse xenografted with human GEO cells assessed as mortality at 12.5 mg/kg, po administered for 3 days in presence of cetuximab at 0.25 mg/kg relative to control; format: organism-based; settings: in vivo, time 3 day
[16] = Toxicity in nude mouse xenografted with human GEO cells assessed as body weight loss at 6.25 mg/kg, po administered for 17 days; format: organism-based; settings: in vivo, 408 h, time 17 day
Mus musculus [17] = assay: Anti-diabetic activity against nude mouse xenografted with mouse IGF-1R-Sal cells assessed as insulin level at 3.125 mg/kg, po administered for 2 hrs by ELISA analysis (Rvb= 0.39 +/- […]); format: functional
GEO [18] = assay: Antitumor activity against human GEO cells xenografted in nude mouse assessed as tumor growth inhibition at 25 mg/kg, po administered for 3 days in presence of cetuximab at 0.25 mg/kg relative to control; format: functional; settings: 72 h, time 3 day, read-out: TGI
[19] = Antitumor activity against mouse IGF-1R-Sal cells xenografted in nude mouse assessed as tumor growth inhibition at 3.1 to 12.5 mg/kg, po administered for 4 days relative to control; format: functional; settings: dose 3.1-12.5 mg/kg, time 4 day
Rh41 [20] = assay: Induction of cell cycle arrest in human Rh41 cells assessed as accumulation of cells at sub-G1 phase at 10x IC50 incubated for 24 hrs by propidium iodide staining based flow cytometry analysis (reference value: […])
Mus musculus [21] = assay: Anti-diabetic activity against nude mouse xenografted with mouse IGF-1R-Sal cells assessed as insulin level at 25 mg/kg, po administered for 2 hrs by ELISA analysis (Rvb= 0.39 +/- […]); format: functional
JJN-3 = assay: Antitumor activity against human JJN-3 cells xenografted in nude mouse assessed as tumor growth inhibition at 25 mg/kg, po administered for 14 days relative to control; format: functional; settings: JJN-3, 336 h, time 14 day, read-out: TGI
[22] = Plasma concentration in nude mouse xenografted with mouse IGF-1R-Sal cells at 12.5 mg/kg, po administered for 2 hrs by LC-MS/MS analysis; format: ADME, organism-based
[23] = Toxicity in nude mouse xenografted with human GEO cells assessed as mortality at 25 mg/kg, po administered for 3 days in presence of cetuximab at 0.25 mg/kg relative to control; format: organism-based; settings: in vivo, time 3 day
Rh41 [24] = assay: Antitumor activity against human Rh41 cells xenografted in nude mouse assessed as tumor growth inhibition at 12 to 50 mg/kg, po administered for 21 days relative to control; format: functional; settings: dose 12-50 mg/kg, time 21 day
Mus musculus [25] = assay: Anti-diabetic activity against nude mouse xenografted with mouse IGF-1R-Sal cells assessed as insulin level at 12.5 mg/kg, po administered for 2 hrs by ELISA analysis (Rvb= 0.39 +/- […]); format: functional
GEO [26] = assay: Antitumor activity against human GEO cells xenografted in nude mouse assessed as tumor growth inhibition at 25 mg/kg, po administered for 14 days relative to control; format: functional; settings: 336 h, time 14 day, read-out: TGI
GEO [27] = assay: Antitumor activity against human GEO cells xenografted in nude mouse assessed as tumor growth delay time at 25 mg/kg, po administered for 3 days in presence of cetuximab at 0.25 mg/kg relative to control; format: functional; settings: time 3 day

Chain of High affinity nerve growth factor receptor (P35739 whole entry): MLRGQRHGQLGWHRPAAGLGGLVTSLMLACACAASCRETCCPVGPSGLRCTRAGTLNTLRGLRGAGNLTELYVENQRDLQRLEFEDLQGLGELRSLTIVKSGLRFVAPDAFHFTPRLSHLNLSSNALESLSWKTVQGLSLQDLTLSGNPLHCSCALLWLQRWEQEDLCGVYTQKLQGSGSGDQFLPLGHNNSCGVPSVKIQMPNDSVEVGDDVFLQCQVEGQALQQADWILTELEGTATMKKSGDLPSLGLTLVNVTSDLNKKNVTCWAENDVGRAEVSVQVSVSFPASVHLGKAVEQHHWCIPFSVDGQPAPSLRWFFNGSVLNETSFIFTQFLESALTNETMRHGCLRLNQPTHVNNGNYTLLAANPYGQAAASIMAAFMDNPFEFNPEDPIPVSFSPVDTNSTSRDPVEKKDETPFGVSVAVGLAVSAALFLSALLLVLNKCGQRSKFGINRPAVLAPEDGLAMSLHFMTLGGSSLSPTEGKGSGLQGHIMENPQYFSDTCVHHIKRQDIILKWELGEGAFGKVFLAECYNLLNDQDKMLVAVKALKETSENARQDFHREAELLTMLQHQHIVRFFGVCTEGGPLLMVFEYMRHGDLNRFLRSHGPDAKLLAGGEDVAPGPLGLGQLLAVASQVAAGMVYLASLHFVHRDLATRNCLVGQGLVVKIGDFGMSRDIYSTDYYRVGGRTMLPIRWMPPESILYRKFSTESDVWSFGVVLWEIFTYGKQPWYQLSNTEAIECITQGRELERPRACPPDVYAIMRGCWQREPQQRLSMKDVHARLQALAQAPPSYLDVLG

C[C@@]1(C(=O)Nc2ccc(F)nc2)CCCN1c1nc(Nc2cc(C3CC3)n[nH]2)c2cccn2n1 [BMS-754807]
Activity (Rh41 [1]): Active
Activity [2]: 1.4 g
mortality at 72 h [3]: 0%
inhibition (IGF-1R-Sal): Active
inhibition in vivo at 12.5 mg/kg (GEO [4]): 86%
Activity (Rh41 [5]): 2.8%
Activity (Mus musculus [6]): 91 mg/dL
Time (GEO [7]): 23 days
Activity [8]: 1.5 g
inhibition in vivo at 6.25 mg/kg (GEO [9]): 79%
inhibition in vivo at 12.5 mg/kg (GEO [10]): 38%
IC50 (GTL 16 cell line): 200 nM
inhibition in vivo at 12.5 mg/kg (GEO [11]): 88%
Time (GEO [12]): 21 days
inhibition in vivo at 50 mg/kg (COLO 205): 53%
mortality at 408 h [13]: 0%
IC50 [14]: 1020 nM
mortality at 72 h [15]: 0%
Activity [16]: -0.4 g
Activity (Mus musculus [17]): 2 ng/mL
inhibition in vivo at 25 mg/kg (GEO [18]): 88%
TGI [19]: 80%
Activity (Rh41 [20]): 23.1%
Activity (Mus musculus [21]): 17.2 ng/mL
inhibition in vivo at 25 mg/kg (JJN-3): 53%
concentration at 2 h [22]: 29 nM
mortality at 72 h [23]: 0%
TGI (Rh41 [24]): 45%
Activity (Mus musculus [25]): 5.1 ng/mL
inhibition in vivo at 25 mg/kg (GEO [26]): 56%
Time (GEO [27]): 24 days
